Experimental findings from US9359451B2, “Methods and compositions for treating trauma-hemorrhage using estrogen and derivatives thereof” (THE UAB RESEARCH FOUNDATION, priority 2012, dated 2016) are described below.

Each structure is given as a SMILES string. Entries after “also recorded” stand apart in the source; their conditions may differ.

One assay deals with spinal cord tissue. Briefly: Spinal cord injury (clip compression): histology and Luxol fast blue. The conditions noted are these: 24 h after SCI; for histological alterations of the spinal cord tissue (H&E, histological score): 17β-estradiol 300 μg/kg sc 1 h before, 3 h and 6 h after SCI, ICI 182,780: 500 μg/kg sc 1 h before 17β-estradiol; for myelin structure (Luxol fast blue): ICI 182,780: co-administered with 17β-estradiol. The assay is classed as in vivo, mouse. As for the experimental part: Mice were anaesthetized using chloral hydrate (400 mg/kg body weight) (Genovese 2006). A longitudinal incision was made on the midline of the back, exposing the paravertebral muscles. These muscles were dissected away exposing T5-T8 vertebrae. The spinal cord was exposed via a four-level T6-T7 laminectomy and SCI was produced by extradural compression using an aneurysm clip with a closing force of 24 g. Following surgery, 1 ml of saline was administered subcutaneously in order to replace the blood volume lost during surgery. During the surgery and recovery from anesthesia, the mice were placed on a warm heating pad and covered with a warm towel. […] Food and water were provided to the mice ad libitum. During this time period, the animals' bladders were manually voided twice a day until the mice were able to regain normal bladder function. In all injured groups, the spinal cord was compressed for 1 min. Sham-injured animals were only subjected to laminectomy. […] In the experiments regarding the motor score, the animals from all the experimental groups were observed and treated daily for 9 days after SCI. At different time points (see FIG. 30), the mice (n=10 from each group for each of the 3 time points) were sacrificed in order to evaluate the various parameters as described below. Spinal cord biopsies were taken at 24 hours following trauma. Tissue segments containing the lesion (1 cm on each side of the lesion) were paraffin embedded and cut into 5-μm-thick sections. Tissue sections were deparaffinized with xylene, stained with Haematoxylin/Eosin (H&E) and Luxol Fast Blue staining (used to assess demyelination) and studied using light microscopy (Dialux 22 Leitz). The segments of each spinal cord were evaluated by an experienced histopathologist (RO). Damaged neurons were counted and the histopathologic changes of the gray matter were scored on a 6-point […] 2000): 0, no lesion observed, 1, gray matter contained 1 to 5 eosinophilic neurons; 2, gray matter contained 5 to 10 eosinophilic neurons; 3, gray matter contained more than 10 eosinophilic neurons; 4, small infarction (less than one third of the gray matter area); 5, moderate infarction; (one third to one half of the gray matter area); 6, large infarction (more than half of the gray matter area). The scores from all the sections from each spinal cord were averaged to give a final score for an individual mice. All the histological studies were performed in a blinded fashion.

Assay [1] has as its system iNOS, nitrotyrosine, COX-2, Bax and Bcl-2. In words: Spinal cord injury: immunohistochemical localization of nitrotyrosine, iNOS, COX-2, Bax and Bcl-2. Format: in vivo, mouse. The conditions noted are these: 24 h after SCI; ICI 182,780: co-administered with 17β-estradiol. As for the experimental part: Mice were anaesthetized using chloral hydrate (400 mg/kg body weight) (Genovese 2006). A longitudinal incision was made on the midline of the back, exposing the paravertebral muscles. These muscles were dissected away exposing T5-T8 vertebrae. The spinal cord was exposed via a four-level T6-T7 laminectomy and SCI was produced by extradural compression using an aneurysm clip with a closing force of 24 g. Following surgery, 1 ml of saline was administered subcutaneously in order to replace the blood volume lost during surgery. During the surgery and recovery from anesthesia, the mice were placed on a warm heating pad and covered with a warm towel. […] Food and water were provided to the mice ad libitum. During this time period, the animals' bladders were manually voided twice a day until the mice were able to regain normal bladder function. In all injured groups, the spinal cord was compressed for 1 min. Sham-injured animals were only subjected to laminectomy. Mice were randomly allocated into the following groups: (i) saline+SCI group, mice received saline subcutaneously and were subjected to SCI (n=40); […] (v) saline+sham group, mice were subjected to the surgical procedures as above group except that the aneurysm clip was not applied (n=40); […] In the experiments regarding the motor score, the animals from all the experimental groups were observed and treated daily for 9 days after SCI. At different time points (see FIG. 30), the mice (n=10 from each group for each of the 3 time points) were sacrificed in order to evaluate the various parameters as described below. […] After deparaffinization, endogenous peroxidase was quenched with 0.3% (v/v) hydrogen peroxide in 60% (v/v) methanol for 30 min. […] Non-specific adsorption was minimized by incubating the section in 2% (v/v) normal goat serum in PBS for 20 min. Endogenous biotin or avidin binding sites were blocked by sequential incubation for 15 min with biotin and avidin (DBA), respectively. […] Sections were washed with PBS, and incubated with secondary antibody. Specific labeling was detected with a biotin-conjugated goat anti-rabbit IgG and avidin-biotin peroxidase complex (DBA) and counterstained with nuclear fast red. To verify the binding specificity for nitrotyrosine, iNOS, COX-2, Bax, and Bcl-2, some sections were also incubated with only the primary antibody (no secondary) or with only the secondary antibody (no primary). […] Immunocytochemistry photographs (n=5) were assessed by densitometry as previously described (Shea 1994) by using Imaging Densitometer (AxioVision, Zeiss, Milan, Italy) and a computer program.

Consider `C[C@]12CC[C@@H]3c4ccc(O)cc4C[C@@H](CCCCCCCCC[S+]([O-])CCCC(F)(F)C(F)(F)F)[C@H]3[C@@H]1CC[C@@H]2O` (some centres unmarked) [ICI 182,780], for which, in the assay with spinal cord tissue, the “histological alterations of the spinal cord tissue (H&E, histological score)” value is “significantly blocked the effect of the 17β-estradiol” and the “myelin structure (Luxol fast blue)” value is reported as “significantly blocked the effect of the 17β-estradiol”. Besides, in assay [1], the “immunohistochemical expression of Bax” value is on record as “significantly blocked the effect of the 17β-estradiol”, the “immunohistochemical expression of Bcl-2” value was “significantly blocked the effect of the 17β-estradiol”, the “immunostaining for COX-2” value is “significantly blocked the effect of the 17β-estradiol” and the “immunostaining for iNOS” value is “significantly blocked the effect of the 17β-estradiol”. Also, the immunostaining for nitrotyrosine entry in assay [1] is listed as “significantly blocked the effect of the 17β-estradiol”.
As for `C[C@]12CC[C@@H]3c4ccc(O)cc4CC[C@H]3[C@@H]1CC[C@@H]2O` [17β-estradiol], in the assay on spinal cord tissue, the “histological alterations of the spinal cord tissue (H&E, histological score)” value is “significant protection against the SCI-induced histological alteration; also recorded: significant protection from the SCI was observed” and the “myelin structure (Luxol fast blue)” value is listed as “myelin degradation was attenuated”. For the same compound, in assay [1], the “immunohistochemical expression of Bax” value is reported as “reduced the degree of positive staining for Bax; also recorded: significantly inhibited the SCI-induced increase in Bax expression”, the “immunohistochemical expression of Bcl-2” value is “attenuated the loss of positive staining for Bcl-2; also recorded: significantly prevents the loss of Bcl-2 expression”, the “immunostaining for COX-2” value is reported as “reduced the degree of positive staining for COX-2; also recorded: marked reduction in the immunostaining for COX-2” and the “immunostaining for iNOS” value is listed as “reduced the degree of positive staining for iNOS; also recorded: marked reduction in the immunostaining”. Further, the immunostaining for nitrotyrosine entry in assay [1] is recorded as “reduced the degree of positive staining for nitrotyrosine; also recorded: marked reduction in the immunostaining”.
